Where two headings read alike, the source gives them in different places.
Tested on: cancer cell lines
Assay: Cancer cell proliferation activity (CellTiterGlo, 72 h)
Assay type: cell-based
Details: 72 h, 72 h, read-out: IC50 cell proliferation
Method in brief: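 Readout is CellTiterGlo luminescence after 72 h compound exposure (0.1% DMSO final), started one day post-seeding, at 37 °C.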

Nc1nc(F)nc2c1ncn2[C@@H]1O[C@H](CO)[C@@H](O)[C@H]1O [compound 184, (2R,3R,4S,5R)-2-(6-amino-2-fluoro-9H-purin-9-yl)-5-(hydroxymethyl)tetrahydrofuran-3,4-diol]
IC50 (5637 (bladder)): 190 nM | IC50 (CLS439 (bladder)): 60 nM | IC50 (HS729 (muscle)): 100 nM | IC50 (J82 (bladder)): 100 nM | IC50 (JAR (placenta)): 40 nM | IC50 (MT3 (breast)): 90 nM | IC50 (PANCI (pancreas)): 130 nM | IC50 (PC3 (prostate)): 40 nM | IC50 (RD (muscle)): 60 nM | IC50 (T24 (bladder)): 60 nM | IC50 (Homo sapiens, 22Rv1, 72 h, 22RV1 (prostate)): 220 nM | IC50 (Homo sapiens, 786-0, 72 h, 786O (kidney)): 50 nM | IC50 (Homo sapiens, A204, 72 h, A204 (muscle)): 20 nM | IC50 (Homo sapiens, A549, 72 h, A549 (lung)): 40 nM | IC50 (Homo sapiens, A673, 72 h, A673 (bone)): 270 nM | IC50 (Homo sapiens, A2780, 72 h, A2780 (ovary)): 150 nM | IC50 (Homo sapiens, A-375, 72 h, A375 (skin)): 40 nM | IC50 (Homo sapiens, A-431, 72 h, A431 (skin)): 40 nM | IC50 (Homo sapiens, ACHN, ACHN (kidney)): 20 nM | IC50 (Homo sapiens, ASPC1, 72 h, ASPC1 (pancreas)): 30 nM | IC50 (Homo sapiens, BT-20, 72 h, BT20 (breast)): 30 nM | IC50 (Homo sapiens, BXPC-3, 72 h, BXPC3 (pancreas)): 80 nM | IC50 (Homo sapiens, C-33-A, C33A (endometrial)): 50 nM | IC50 (Homo sapiens, CAKI-1, 72 h, CAKI1 (kidney)): 10 nM | IC50 (Homo sapiens, COLO 205, 72 h, COLO205 (colon)): 120 nM | IC50 (Homo sapiens, COLO-678, 72 h, COLO678 (colon)): 60 nM | IC50 (Homo sapiens, Ca-Ski, CASKI (endometrial)): 30 nM | IC50 (Homo sapiens, Caco-2, 72 h, CACO2 (colon)): 190 nM | IC50 (Homo sapiens, Calu-6, 72 h, CALU6 (lung)): 30 nM | IC50 (Homo sapiens, DLD-1, 72 h, DLD1 (colon)): 90 nM | IC50 (Homo sapiens, DU-145, 72 h, DU145 (prostate)): 20 nM | IC50 (Homo sapiens, EFO-21, 72 h, EFO21 (ovary)): 70 nM | IC50 (Homo sapiens, EJ-28, 72 h, EJ28 (bladder)): 30 nM | IC50 (Homo sapiens, Granta-519, 72 h, GRANTA-519 (hematological)): 110 nM | IC50 (Homo sapiens, HCT-15, 72 h, HCT15 (colon)): 40 nM | IC50 (Homo sapiens, HCT-116, 72 h, HCT116 (colon)): 140 nM | IC50 (Homo sapiens, HEK293, 72 h, HEK293 (kidney)): 50 nM | IC50 (Homo sapiens, HL-60, 72 h, HL-60 (hematological)): 40 nM | IC50 (Homo sapiens, HT-29, 72 h, HT29 (colon)): 70 nM | IC50 (Homo sapiens, HT-1080, 72 h, HT1080 (connective tissue)): 70 nM | IC50 (Homo sapiens, HeLa, HELA (endometrial)): 70 nM | IC50 (Homo sapiens, HepG2, 72 h, HEPG2 (liver)): 40 nM | IC50 (Homo sapiens, Hs-578T, HS578T (breast)): 80 nM | IC50 (Homo sapiens, IGROV-1, 72 h, IGROV1 (ovary)): 50 nM | IC50 (Homo sapiens, IMR-90, 72 h, IMR90 (lung)): 30 nM | IC50 (Homo sapiens, JEG-3, 72 h, JEG3 (placenta)): 40 nM | IC50 (Homo sapiens, JIMT-1, 72 h, JIMT1 (breast)): 20 nM | IC50 (Homo sapiens, K562, 72 h, K-562 (hematological)): 120 nM | IC50 (Homo sapiens, Kasumi 1, 72 h, KASUMI-1 (hematological)): 10 nM | IC50 (Homo sapiens, L-363, 72 h, L-363 (hematological)): 20 nM | IC50 (Homo sapiens, LoVo, LOVO (colon)): 20 nM | IC50 (Homo sapiens, MCF7, 72 h, MCF7 (breast)): 100 nM | IC50 (Homo sapiens, MDA-MB-231, 72 h, MDAMB231 (breast)): 40 nM | IC50 (Homo sapiens, MDA-MB-435, 72 h, MDAMB435 (skin)): 50 nM | IC50 (Homo sapiens, MDA-MB-436, 72 h, MDAMB436 (breast)): 40 nM | IC50 (Homo sapiens, MDA-MB-468, 72 h, MDAMB468 (breast)): 80 nM | IC50 (Homo sapiens, MG-63, 72 h, MG63 (bone)): 390 nM | IC50 (Homo sapiens, MHH-ES-1, 72 h, MHHES1 (bone)): 70 nM | IC50 (Homo sapiens, MIA PaCa-2, 72 h, MIAPACA2 (pancreas)): 130 nM | IC50 (Homo sapiens, MINO, MINO (hematological)): 10 nM | IC50 (Homo sapiens, MV4-11, 72 h, MV4-11 (hematological)): 20 nM | IC50 (Homo sapiens, NCI-H23, 72 h, NCI-H23 (lung)): 40 nM | IC50 (Homo sapiens, NCI-H82, 72 h, NCIH82 (lung)): 60 nM | IC50 (Homo sapiens, NCI-H292, 72 h, NCIH292 (lung)): 90 nM | IC50 (Homo sapiens, NCI-H460, 72 h, NCIH460 (lung)): 40 nM | IC50 (Homo sapiens, OVCAR-3, 72 h, OVCAR3 (ovary)): 40 nM | IC50 (Homo sapiens, OVCAR-4, 72 h, OVCAR4 (ovary)): 50 nM | IC50 (Homo sapiens, PLC-PRF-5, 72 h, PLCPRF5 (liver)): 230 nM | IC50 (Homo sapiens, Panc1005, 72 h, PANC1005 (pancreas)): 50 nM | IC50 (Homo sapiens, Ramos, RAMOS (hematological)): 140 nM | IC50 (Homo sapiens, SAOS-2, 72 h, SAOS2 (bone)): 50 nM | IC50 (Homo sapiens, SF-268, 72 h, SF268 (brain)): 160 nM | IC50 (Homo sapiens, SF-295, 72 h, SF295 (brain)): 160 nM | IC50 (Homo sapiens, SK-BR-3, 72 h, SKBR3 (breast)): 10 nM | IC50 (Homo sapiens, SK-HEP1, 72 h, SKHEP1 (liver)): 20 nM | IC50 (Homo sapiens, SK-LMS-1, 72 h, SKLMS1 (uterus)): 40 nM | IC50 (Homo sapiens, SK-MEL-5, 72 h, SKMEL5 (skin; SKMELS [sic] in Table 9E)): 50 nM | IC50 (Homo sapiens, SK-MEL-28, 72 h, SKMEL28 (skin)): 100 nM | IC50 (Homo sapiens, SK-N-AS, SKNAS (brain)): 30 nM | IC50 (Homo sapiens, SK-N-SH, SKNSH (brain)): 30 nM | IC50 (Homo sapiens, SK-OV-3, 72 h, SKOV3 (ovary)): 50 nM | IC50 (Homo sapiens, SNB-75, 72 h, SNB75 (brain)): 100 nM | IC50 (Homo sapiens, SU-DHL10, 72 h, SU-DHL-10 (hematological)): 180 nM | IC50 (Homo sapiens, SU-DHL-6, 72 h, SU-DHL-6 (hematological)): 10 nM | IC50 (Homo sapiens, SW-620, 72 h, SW620 (colon)): 30 nM | IC50 (Homo sapiens, TE-671, 72 h, TE671 (muscle)): 150 nM | IC50 (Homo sapiens, THP-1, 72 h, THP-1 (hematological)): 20 nM | IC50 (Homo sapiens, U2OS, U20S (bone; U2OS in Table 9E)): 40 nM | IC50 (Homo sapiens, U-87 MG, U87MG (brain)): 30 nM | IC50 (Homo sapiens, UMUC3, 72 h, UMUC3 (bladder)): 30 nM | IC50 (Homo sapiens, UO-31, 72 h, UO31 (kidney)): 50 nM | IC50 (Homo sapiens, WSU-NHL, WSU-NHL (hematological)): 30 nM | IC50 (NCI-H358M, NCIH358M (lung)): 70 nM | IC50 (PBMC, PBMC (hematological)): 180 nM | IC50 (RD-ES, RDES (bone)): 20 nM

Reference: patent US20250215039A1, “NUCLEOSIDES FOR TREATING CANCER” (PRIMEFOUR THERAPEUTICS, INC., priority 2022, published 2025)
